Experimental data published in US20250313635A1, “ANTI-INTEGRIN ANTIBODIES AND USES THEREOF” (Merck Sharp & Dohme LLC, priority 2022, published 2025).
pIC50: −log10 of the molar value. Where two headings read alike, the source gives them in different places.

Key:
hαvβ1 = molecular target: T1, hαvβ1 (Homo sapiens, UniProt P05556+P06756); assay: Human AlphaLISA integrin-ligand blocking assay (fibronectin); format: biochemical
T1 construct: The full extracellular domains for all α and β integrin subunits; (GGGS)3 linker (C); acidic coiled-coil with cysteine (C); GG-Avitag (C); hexa-histidine tag (C); basic coiled-coil with cysteine (C); made in house; host or cells: Expi293 cells
T1 sequence (P06756 31-992 limits assumed): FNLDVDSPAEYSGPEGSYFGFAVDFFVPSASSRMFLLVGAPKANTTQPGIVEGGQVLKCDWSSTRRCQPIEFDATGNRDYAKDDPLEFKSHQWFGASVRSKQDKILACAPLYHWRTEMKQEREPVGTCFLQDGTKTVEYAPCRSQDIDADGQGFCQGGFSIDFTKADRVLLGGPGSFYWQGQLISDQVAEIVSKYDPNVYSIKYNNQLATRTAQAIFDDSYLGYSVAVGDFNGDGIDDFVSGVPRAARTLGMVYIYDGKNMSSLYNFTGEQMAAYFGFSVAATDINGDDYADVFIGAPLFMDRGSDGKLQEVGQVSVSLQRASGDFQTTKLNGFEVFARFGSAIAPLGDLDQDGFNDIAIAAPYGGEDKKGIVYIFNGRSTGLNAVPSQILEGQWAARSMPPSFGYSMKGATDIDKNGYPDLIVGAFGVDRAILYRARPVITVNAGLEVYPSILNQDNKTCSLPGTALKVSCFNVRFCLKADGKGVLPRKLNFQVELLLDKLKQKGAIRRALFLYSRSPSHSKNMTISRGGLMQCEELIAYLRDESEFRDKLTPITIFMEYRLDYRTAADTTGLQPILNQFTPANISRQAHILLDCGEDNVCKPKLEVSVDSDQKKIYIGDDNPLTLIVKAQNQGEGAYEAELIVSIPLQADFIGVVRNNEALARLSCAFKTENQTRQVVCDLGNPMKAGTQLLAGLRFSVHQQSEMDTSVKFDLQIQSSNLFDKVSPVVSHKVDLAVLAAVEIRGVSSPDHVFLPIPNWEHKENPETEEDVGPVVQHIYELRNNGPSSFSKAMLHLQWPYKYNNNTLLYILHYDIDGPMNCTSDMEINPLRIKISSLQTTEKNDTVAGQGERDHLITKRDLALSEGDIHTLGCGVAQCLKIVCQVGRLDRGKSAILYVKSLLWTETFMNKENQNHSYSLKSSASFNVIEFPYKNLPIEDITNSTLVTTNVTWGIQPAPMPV
T1 sequence (P05556 21-728 limits assumed): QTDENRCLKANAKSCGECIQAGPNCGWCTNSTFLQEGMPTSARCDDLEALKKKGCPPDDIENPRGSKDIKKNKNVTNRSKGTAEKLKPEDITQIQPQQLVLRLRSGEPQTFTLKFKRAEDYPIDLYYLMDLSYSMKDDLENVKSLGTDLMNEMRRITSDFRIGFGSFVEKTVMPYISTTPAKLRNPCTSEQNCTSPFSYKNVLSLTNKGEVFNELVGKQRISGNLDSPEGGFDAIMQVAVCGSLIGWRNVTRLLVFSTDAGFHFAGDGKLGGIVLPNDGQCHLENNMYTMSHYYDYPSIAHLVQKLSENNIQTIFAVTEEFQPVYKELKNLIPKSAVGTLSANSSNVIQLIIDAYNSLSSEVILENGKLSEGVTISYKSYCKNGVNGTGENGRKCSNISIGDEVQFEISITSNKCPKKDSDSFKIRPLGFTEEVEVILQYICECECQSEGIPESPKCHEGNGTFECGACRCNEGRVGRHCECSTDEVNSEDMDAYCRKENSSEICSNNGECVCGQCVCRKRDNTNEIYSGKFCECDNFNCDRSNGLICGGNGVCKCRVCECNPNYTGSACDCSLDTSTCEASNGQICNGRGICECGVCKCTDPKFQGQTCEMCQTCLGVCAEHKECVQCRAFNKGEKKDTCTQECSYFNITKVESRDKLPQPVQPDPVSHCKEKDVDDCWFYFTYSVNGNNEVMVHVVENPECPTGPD
Protocol: (§1) Integrin AlphaLISA assay. In the AlphaLISA integrin assays, we used a HEPES based buffer (25 mM HEPES pH 7.4, 137 mM NaCl, 1 mM MgCl2, 1 mM MnCl2, 2 mM CaCl2, 2.7 mM KCl, and 0.05% Tween 20). Optimal assay conditions were determined with a titration of the reagents for signal noise ratio (S/N), linear range, etc. For the respective integrins, we used the final concentrations described in Table 9.
(§2) Briefly, the testing antibody (8 μL) was added as a 4×(of Final testing concentration) solution in the HEPES buffer described previously into a 384w AlphaPlate™ (Perkin Elmer #6005350). Then the integrin and ligand were added sequentially as 8×(4 μL each). Plates were sealed and incubated at room temperature for two hours. Then 4×acceptor bead solution ([…]) was added, and the plates were resealed and incubated at room temperature (RT) for one hour. Finally, 4×([…]) donor beads solution was added in a darkened room and incubated for 45 minutes at room temperature. Plates were read on the Envision (Perkin Elmer) in AlphaScreen™ mode within three hours of donor bead addition.

hα5β1 = molecular target: T2, hα5β1 (Homo sapiens, UniProt P05556+P08648); assay: as above; format: biochemical
T2 construct: The full extracellular domains for all α and β integrin subunits; (GGGS)3 linker (C); acidic coiled-coil with cysteine (C); GG-Avitag (C); hexa-histidine tag (C); basic coiled-coil with cysteine (C); made in house; host or cells: Expi293 cells
T2 sequence (P08648 42-995 limits assumed): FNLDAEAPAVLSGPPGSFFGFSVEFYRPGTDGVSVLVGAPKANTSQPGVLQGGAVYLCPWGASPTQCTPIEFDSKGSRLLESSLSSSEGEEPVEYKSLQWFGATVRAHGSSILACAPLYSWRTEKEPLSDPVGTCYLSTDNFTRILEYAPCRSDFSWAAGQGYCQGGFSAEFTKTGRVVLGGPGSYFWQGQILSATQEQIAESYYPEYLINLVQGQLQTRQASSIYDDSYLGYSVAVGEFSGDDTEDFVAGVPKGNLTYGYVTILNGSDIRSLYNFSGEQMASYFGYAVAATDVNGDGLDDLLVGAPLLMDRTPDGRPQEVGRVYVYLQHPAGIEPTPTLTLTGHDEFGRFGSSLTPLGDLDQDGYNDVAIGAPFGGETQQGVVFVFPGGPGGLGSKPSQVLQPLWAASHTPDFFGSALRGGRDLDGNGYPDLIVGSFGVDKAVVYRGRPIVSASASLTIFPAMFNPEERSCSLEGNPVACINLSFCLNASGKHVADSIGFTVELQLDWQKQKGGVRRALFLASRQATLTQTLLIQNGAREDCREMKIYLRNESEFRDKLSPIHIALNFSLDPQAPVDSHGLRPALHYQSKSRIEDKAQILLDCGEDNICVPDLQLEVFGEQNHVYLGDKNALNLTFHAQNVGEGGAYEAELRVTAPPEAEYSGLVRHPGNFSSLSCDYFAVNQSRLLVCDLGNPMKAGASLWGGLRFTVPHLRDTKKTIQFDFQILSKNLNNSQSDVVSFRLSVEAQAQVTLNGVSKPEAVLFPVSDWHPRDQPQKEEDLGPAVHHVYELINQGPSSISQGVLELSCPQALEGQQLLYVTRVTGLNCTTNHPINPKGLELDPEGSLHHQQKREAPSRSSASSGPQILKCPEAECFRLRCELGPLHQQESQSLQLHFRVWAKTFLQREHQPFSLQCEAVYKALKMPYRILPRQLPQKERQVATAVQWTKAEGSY
T2 sequence (P05556 21-728 limits assumed): as the sequence (P05556 21-728 limits assumed) above
Protocol: as §1, §2

mαvβ1 = molecular target: T3, mαvβ1 (Mus musculus, UniProt P09055+P43406); assay: Mouse AlphaLISA integrin-ligand blocking assay (fibronectin); format: biochemical; conditions: Table 12; read-out: IC50 Mouse integrin AlphaLISA assays mαvβ1
T3 construct: The full extracellular domains for all α and β integrin subunits; (GGGS)3 linker (C); acidic coiled-coil with cysteine (C); GG-Avitag (C); hexa-histidine tag (C); basic coiled-coil with cysteine (C); made in house; host or cells: Expi293 cells
Protocol: as §1, §2

mα5β1 = molecular target: T4, mα5β1 (Mus musculus, UniProt P09055+P11688); assay: as above; format: biochemical; conditions: Table 12; read-out: IC50 Mouse integrin AlphaLISA assays mα5β1
T4 construct: The full extracellular domains for all α and β integrin subunits; (GGGS)3 linker (C); acidic coiled-coil with cysteine (C); GG-Avitag (C); hexa-histidine tag (C); basic coiled-coil with cysteine (C); made in house; host or cells: Expi293 cells
Protocol: as §1, §2

mouse αvβ1 [1] = molecular target: T5, mouse αvβ1 (Mus musculus, UniProt P09055+P43406); assay: Cell adhesion assay, CHOK1-α5KO-mαvβ1 cells on fibronectin; format: cell-based; conditions: FIG. 11
T5 construct: expressed in transfected cells
T5 sequence (P43406 31-1044): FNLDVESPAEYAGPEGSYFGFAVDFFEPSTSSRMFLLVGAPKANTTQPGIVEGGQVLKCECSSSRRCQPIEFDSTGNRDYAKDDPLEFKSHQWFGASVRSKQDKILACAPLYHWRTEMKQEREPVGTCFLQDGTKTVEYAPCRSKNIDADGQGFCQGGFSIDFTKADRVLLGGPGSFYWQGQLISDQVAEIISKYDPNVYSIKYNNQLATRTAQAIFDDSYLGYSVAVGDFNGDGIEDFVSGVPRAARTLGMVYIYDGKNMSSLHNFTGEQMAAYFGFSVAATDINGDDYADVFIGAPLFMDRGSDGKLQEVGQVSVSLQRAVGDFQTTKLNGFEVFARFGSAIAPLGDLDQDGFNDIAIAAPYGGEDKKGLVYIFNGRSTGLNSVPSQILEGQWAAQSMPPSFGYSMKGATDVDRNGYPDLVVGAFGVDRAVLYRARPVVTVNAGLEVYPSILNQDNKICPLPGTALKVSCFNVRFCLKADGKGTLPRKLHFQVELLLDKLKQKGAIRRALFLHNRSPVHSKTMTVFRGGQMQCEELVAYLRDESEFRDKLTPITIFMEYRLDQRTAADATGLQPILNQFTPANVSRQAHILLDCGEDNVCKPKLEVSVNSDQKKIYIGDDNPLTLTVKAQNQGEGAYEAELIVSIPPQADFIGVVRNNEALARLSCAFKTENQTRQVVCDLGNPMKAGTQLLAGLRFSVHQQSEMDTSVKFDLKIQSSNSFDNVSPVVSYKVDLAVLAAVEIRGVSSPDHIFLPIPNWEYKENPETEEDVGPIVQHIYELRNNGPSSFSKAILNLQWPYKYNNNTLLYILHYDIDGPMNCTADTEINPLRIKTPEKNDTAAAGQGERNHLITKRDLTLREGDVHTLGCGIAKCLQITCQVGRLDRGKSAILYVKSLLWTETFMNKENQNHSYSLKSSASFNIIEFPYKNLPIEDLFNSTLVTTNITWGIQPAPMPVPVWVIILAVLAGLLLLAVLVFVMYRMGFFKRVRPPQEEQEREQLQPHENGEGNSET
T5 sequence (P09055 21-798): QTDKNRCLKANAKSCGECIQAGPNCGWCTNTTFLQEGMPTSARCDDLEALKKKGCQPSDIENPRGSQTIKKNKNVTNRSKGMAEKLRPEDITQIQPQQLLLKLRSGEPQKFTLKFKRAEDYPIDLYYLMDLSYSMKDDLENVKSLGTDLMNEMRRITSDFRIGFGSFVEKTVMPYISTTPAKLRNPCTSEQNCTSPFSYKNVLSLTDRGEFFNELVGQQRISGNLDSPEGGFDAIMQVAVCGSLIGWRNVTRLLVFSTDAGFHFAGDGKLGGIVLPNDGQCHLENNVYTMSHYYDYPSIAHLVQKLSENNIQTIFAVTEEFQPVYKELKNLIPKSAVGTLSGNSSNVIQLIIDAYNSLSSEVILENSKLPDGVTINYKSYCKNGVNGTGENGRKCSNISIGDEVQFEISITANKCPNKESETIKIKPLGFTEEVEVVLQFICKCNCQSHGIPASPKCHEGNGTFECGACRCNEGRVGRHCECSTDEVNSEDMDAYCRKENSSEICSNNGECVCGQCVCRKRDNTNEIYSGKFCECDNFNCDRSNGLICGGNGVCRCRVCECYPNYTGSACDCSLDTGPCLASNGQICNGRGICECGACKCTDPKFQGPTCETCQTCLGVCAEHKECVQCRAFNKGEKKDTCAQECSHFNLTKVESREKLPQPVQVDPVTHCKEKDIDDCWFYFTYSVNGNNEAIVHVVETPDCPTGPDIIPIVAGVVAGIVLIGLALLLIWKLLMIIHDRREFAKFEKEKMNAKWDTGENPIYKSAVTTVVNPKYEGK
Protocol: Cell adhesion assay. For plate preparation, Epic 384-well assay plates (Corning #5040) were washed with OptiMEM™ (Gibco #31985-070) and coated with murine fibronectin (Abcam #ab92784) at a concentration of 0.1 μg/well for CHO-α5KO-mαvβ1 cells; murine vitronectin (Abcam #ab92727) at 0.075 μg/well for CHO-mαvβ3 cells; or murine vitronectin at 0.125 μg/well for CHO-mαvβ5 (all at a volume of 25 μL/well in OptiMEM™), for one hour. Coating solution was then removed by flicking and plates were washed with OptiMEM™ and blocked with 25 μL/well of assay buffer (1% Ovalbumin (Sigma #A5503-10G) in OptiMEM™ containing 1×Pen-Strep (Gibco #15140-148)). A 5-minute baseline reading was taken on a Corning Epica Plate Reader (Model: Epic BT-157900) before removing the assay buffer and adding cells pre-incubated with inhibitors. The Epic™ plate reader detects cellular mass redistribution (adhesion) on the plate surface as a picometer wavelength shift over time. For inhibitor titration preparation: fivefold serial dilutions of small molecule inhibitor MK-0429 or antibody inhibitor Ab-31 were prepared in assay buffer at 4× the final concentration in a 384-well polypropylene plate in a volume of 15 μL per well, starting at a concentration of 800 nM. […]

human αvβ6 = molecular target: T6, human αvβ6 (Homo sapiens, UniProt P06756+P18564); assay: Latent TGFβ activation assay, TMLC / CHOK1-integrin co-culture (PAI-1 luciferase); format: cell-based; conditions: FIG. 5B
T6 construct: expressed in transfected cells
Protocol: (§3) Latent TGFβ activation assay. Transfected mink lung epithelial cell (TMLC) cell line containing the TGFβ responsive PAI-1 promoter driving luciferase expression (Mazzieri et al, Methods Mol. Biol. 142, 13-27 (2000)) and the CHO-K1 human and mouse αvβ×integrin cell lines were grown under optimized growth conditions to 90% confluency. TMLC cells were trypsinized and plated at 25,000 cells/well in 50 μL in Costar clear bottom white walled plates. In a separate plate, 25 μL of serially diluted antibodies at 4×concentration were added to wells containing 25 μL of either 25,000 cells of human or mouse αvβ×cells. After a brief mixing, the 50 μL mixture was transferred to the TMLC cell plates for a total volume of 100 μL and incubated at 37° C. for 16 hours. 100 μL of ONE-Glo kit (#PRE6120) was added to each well and read after three to five minutes on the Envision plate reader.

mouse αvβ6 = molecular target: T7, mouse αvβ6 (Mus musculus, UniProt P43406+Q9Z0T9); assay: as above; format: cell-based; conditions: FIG. 5B
T7 construct: expressed in transfected cells
Protocol: as §3

human αvβ1 = molecular target: T8, human αvβ1 (Homo sapiens, UniProt P05556+P06756); assay: as above; format: cell-based; conditions: FIG. 5B
T8 construct: expressed in transfected cells
Protocol: as §3

human αvβ8 = molecular target: T9, human αvβ8 (Homo sapiens, UniProt P06756+P26012); assay: as above; format: cell-based; conditions: FIG. 5B
T9 construct: expressed in transfected cells
Protocol: as §3

mouse αvβ1 [2] = molecular target: T5, mouse αvβ1; assay: as above; format: cell-based; conditions: FIG. 5B
Protocol: as §3

- pIC50 (hαvβ1; FIG. 3D, curve-fitted, read-out: IC50 against human αvβ1, AlphaLISA): 9.34
- pIC50 (hαvβ1; Table 11, read-out: IC50 Human integrin AlphaLISA assays hαvβ1): 9.00
- pIC50 (hα5β1; FIG. 3D, curve-fitted, read-out: IC50 against human αvβ1 (as printed, sixth integrin listed), AlphaLISA): 7.76
- pIC50 (hα5β1; Table 11, read-out: IC50 Human integrin AlphaLISA assays hα5β1): 7.58
- pIC50 (mαvβ1): 8.89
- pIC50 (mα5β1): 7.30
- adhesion of mouse αvβ1-expressing CHOK1-α5KO cells (mouse αvβ1 [1]): potently reduced
- inhibition of latent TGFβ activation, human αvβ6 co-culture (human αvβ6): strong inhibitory effect
- inhibition of latent TGFβ activation, mouse αvβ6 co-culture (mouse αvβ6): strong inhibitory effect
- inhibition of latent TGFβ activation, human αvβ1 co-culture (human αvβ1): strong inhibitory effect
- inhibition of latent TGFβ activation, human αvβ8 co-culture (human αvβ8): strong inhibitory effect
- inhibition of latent TGFβ activation, mouse αvβ1 co-culture (mouse αvβ1 [2]): strong inhibitory effect
Structure (SMILES): COc1ccc([C@H](CC(=O)O)N2CCN(CCCc3ccc4c(n3)NCCC4)C2=O)cn1 [MK-0429, (3S)-3-(6-methoxypyridin-3-yl)-3-[2-oxo-3-[3-(5,6,7,8-tetrahydro-1,8-naphthyridin-2-yl)propyl]imidazolidin-1-yl]propanoic acid]
